Measured values published in patent publication US4971965A, “Antibiotics TAN-1057” (Takeda Chemical Industries, Ltd., priority 1988, dated 1990).
Values after ≈ are worked out from the molar mass of the structure shown. Structures can show the parent of a compound that is named as a salt. Where two headings read alike, the source gives them in different places.

Key:
Bacillus cereus FDA 5 = format: cell-based; settings: FDA5, agar dilution, DY medium, pH unadjusted, approx. 10^6 CFU/ml, read-out: Minimum Inhibitory Conc. (MIC)
Description: (§1) (Note 1) Measurement was conducted by employing a medium consisting of DY
(§2) medium [Bacto Antibiotic Medium 3 (Difco Laboratories, USA)(17.5 g), Bact
(§3) yeast extract(Difco Laboratories, USA)(5.0 g) and distilled water(pH
(§4) unadjusted)(1000 ml)], using approximately 10^6 colony forming unit/m
(§5) of inoculum, by means of the agar dilution method.

[1] = tested on: Streptococcus faecalis IFO 3989; format: cell-based; settings: Enterococcus faecalis, IFO3989; agar dilution; DY medium, pH unadjusted; approx. 10^6 CFU/ml; read-out: Minimum Inhibitory Conc. (MIC)
Description: as §1, §2, §3, §4, §5

[2] = tested on: Micrococcus luteus IFO 12708; format: cell-based; settings: IFO12708, agar dilution, DY medium, pH unadjusted, approx. 10^6 CFU/ml, read-out: Minimum Inhibitory Conc. (MIC)
Description: as §1, §2, §3, §4, §5

[3] = tested on: Proteus vulgaris IFO 3988; format: cell-based; settings: IFO3988, agar dilution, DY medium, pH unadjusted, approx. 10^6 CFU/ml, read-out: Minimum Inhibitory Conc. (MIC)
Description: as §1, §2, §3, §4, §5

[4] = tested on: Klebsiella pnemoniae IFO 3317; format: cell-based; settings: IFO3317, agar dilution, DY medium, pH unadjusted, approx. 10^6 CFU/ml, read-out: Minimum Inhibitory Conc. (MIC)
Description: as §1, §2, §3, §4, §5

Escherichia coli LD-2 = format: cell-based; settings: LD2, agar dilution, DY medium, pH unadjusted, approx. 10^6 CFU/ml, read-out: Minimum Inhibitory Conc. (MIC)
Description: as §1, §2, §3, §4, §5

[5] = tested on: Pseudomonas aeruginosa IFO 3080; format: cell-based; settings: IFO3080, agar dilution, DY medium, pH unadjusted, approx. 10^6 CFU/ml, read-out: Minimum Inhibitory Conc. (MIC)
Description: as §1, §2, §3, §4, §5

[6] = tested on: Escherichia coli NIHJ JC 2; format: cell-based; settings: NIHJJC2, agar dilution, DY medium, pH unadjusted, approx. 10^6 CFU/ml, read-out: Minimum Inhibitory Conc. (MIC)
Description: as §1, §2, §3, §4, §5

[7] = tested on: Salmonella typhimurium IFO 12529; format: cell-based; settings: Salmonella enterica; agar dilution; DY medium, pH unadjusted; approx. 10^6 CFU/ml; read-out: Minimum Inhibitory Conc. (MIC)
Description: as §1, §2, §3, §4, §5

[8] = tested on: Staphylococcus epidermidis IFO 3762; format: cell-based; settings: IFO3762, agar dilution, DY medium, pH unadjusted, approx. 10^6 CFU/ml, read-out: Minimum Inhibitory Conc. (MIC)
Description: as §1, §2, §3, §4, §5

[9] = tested on: Bacillus megaterium IFO 12108; format: cell-based; settings: Priestia megaterium, IFO12108; agar dilution; DY medium, pH unadjusted; approx. 10^6 CFU/ml; read-out: Minimum Inhibitory Conc. (MIC)
Description: as §1, §2, §3, §4, §5

[10] = tested on: Acinetobacter calcoaceticus IFO 12552; format: cell-based; settings: IFO12552, agar dilution, DY medium, pH unadjusted, approx. 10^6 CFU/ml, read-out: Minimum Inhibitory Conc. (MIC)
Description: as §1, §2, §3, §4, §5

Aeromonas caviae NCW = format: cell-based; settings: agar dilution, DY medium, pH unadjusted, approx. 10^6 CFU/ml, read-out: Minimum Inhibitory Conc. (MIC)
Description: as §1, §2, §3, §4, §5

[11] = tested on: Staphylococcus aureus FDA 209P; format: cell-based; settings: FDA209P, agar dilution, DY medium, pH unadjusted, approx. 10^6 CFU/ml, read-out: Minimum Inhibitory Conc. (MIC)
Description: as §1, §2, §3, §4, §5

[12] = tested on: Bacillus subtilis NIHJ PCI 219; format: cell-based; settings: agar dilution, DY medium, pH unadjusted, approx. 10^6 CFU/ml, read-out: Minimum Inhibitory Conc. (MIC)
Description: as §1, §2, §3, §4, §5

[13] = Conversion in aqueous solution; format: physicochemical; settings: especially aqueous alkaline solution, by HPLC
Text: For example, in case that the mixture of TAN-1057A and B is isolated as crystals of the sulfate, the ratio of TAN-1057A and B is about 6 to 8:4 to 2.
The term "Antibiotics TAN-1057" in the present specification includes also a mixture which contains TAN-1057A, B, C and D in an optional combination and an optional ratio thereof.

Acidity or basicity = format: physicochemical
Solubility = format: physicochemical
Staphylococcus aureus C7 = assay: Antibacterial activity against clinically isolated S. aureus (agar dilution MIC, Table 2); format: cell-based; settings: strain C7; agar dilution; Mueller Hinton medium; 10^6 CFU/ml
Description: (§6) DMPPC: Methicillin, KM: Kanamycin, GM: Gentamycin, EM: Erythromycin (Note
(§7) Determined by the agar dilution method. Medium: Mueller Hinton medium
(§8) (Difco, USA) Inoculum Size: 10^6 CFU/ml, 37° C.

[14] = tested on: Staphylococcus aureus N237; assay: as above; format: cell-based; settings: strain N237; agar dilution; Mueller Hinton medium; 10^6 CFU/ml
Description: as §6, §7, §8

[15] = tested on: Staphylococcus aureus N64; assay: as above; format: cell-based; settings: strain N64; agar dilution; Mueller Hinton medium; 10^6 CFU/ml
Description: as §6, §7, §8

[16] = tested on: Staphylococcus aureus N247; assay: as above; format: cell-based; settings: strain N247; agar dilution; Mueller Hinton medium; 10^6 CFU/ml
Description: as §6, §7, §8

[17] = tested on: Staphylococcus aureus N83; assay: as above; format: cell-based; settings: strain N83; agar dilution; Mueller Hinton medium; 10^6 CFU/ml
Description: as §6, §7, §8

[18] = tested on: Staphylococcus aureus N121; assay: as above; format: cell-based; settings: strain N121; agar dilution; Mueller Hinton medium; 10^6 CFU/ml
Description: as §6, §7, §8

[19] = tested on: Staphylococcus aureus N28; assay: as above; format: cell-based; settings: strain N28; agar dilution; Mueller Hinton medium; 10^6 CFU/ml
Description: as §6, §7, §8

[20] = tested on: Staphylococcus aureus N235; assay: as above; format: cell-based; settings: strain N235; agar dilution; Mueller Hinton medium; 10^6 CFU/ml
Description: as §6, §7, §8

[21] = tested on: Staphylococcus aureus C10; assay: as above; format: cell-based; settings: strain C10; agar dilution; Mueller Hinton medium; 10^6 CFU/ml
Description: as §6, §7, §8

[22] = tested on: Staphylococcus aureus N176; assay: as above; format: cell-based; settings: strain N176; agar dilution; Mueller Hinton medium; 10^6 CFU/ml
Description: as §6, §7, §8

[23] = tested on: Staphylococcus aureus N247-16; assay: as above; format: cell-based; settings: strain N247-16; agar dilution; Mueller Hinton medium; 10^6 CFU/ml
Description: as §6, §7, §8

Staphylococcus aureus N8 = assay: as above; format: cell-based; settings: strain N8; agar dilution; Mueller Hinton medium; 10^6 CFU/ml
Description: as §6, §7, §8

[24] = tested on: Staphylococcus aureus N129; assay: as above; format: cell-based; settings: strain N129; agar dilution; Mueller Hinton medium; 10^6 CFU/ml
Description: as §6, §7, §8

[25] = tested on: Staphylococcus aureus N262; assay: as above; format: cell-based; settings: strain N262; agar dilution; Mueller Hinton medium; 10^6 CFU/ml
Description: as §6, §7, §8

Staphylococcus aureus C3 = assay: as above; format: cell-based; settings: strain C3; agar dilution; Mueller Hinton medium; 10^6 CFU/ml
Description: as §6, §7, §8

[26] = tested on: Staphylococcus aureus N267; assay: as above; format: cell-based; settings: strain N267; agar dilution; Mueller Hinton medium; 10^6 CFU/ml
Description: as §6, §7, §8

Staphylococcus aureus C4 = assay: as above; format: cell-based; settings: strain C4; agar dilution; Mueller Hinton medium; 10^6 CFU/ml
Description: as §6, §7, §8

[27] = tested on: Staphylococcus aureus N62; assay: as above; format: cell-based; settings: strain N62; agar dilution; Mueller Hinton medium; 10^6 CFU/ml
Description: as §6, §7, §8

[28] = tested on: Staphylococcus aureus N326; assay: as above; format: cell-based; settings: strain N326; agar dilution; Mueller Hinton medium; 10^6 CFU/ml
Description: as §6, §7, §8

[29] = tested on: Staphylococcus aureus TST-75; assay: as above; format: cell-based; settings: strain TST-75; agar dilution; Mueller Hinton medium; 10^6 CFU/ml
Description: as §6, §7, §8

[30] = tested on: Staphylococcus aureus N91; assay: as above; format: cell-based; settings: strain N91; agar dilution; Mueller Hinton medium; 10^6 CFU/ml
Description: as §6, §7, §8

[31] = tested on: Staphylococcus aureus N176-3; assay: as above; format: cell-based; settings: strain N176-3; agar dilution; Mueller Hinton medium; 10^6 CFU/ml
Description: as §6, §7, §8

[32] = tested on: Staphylococcus aureus N247-21; assay: as above; format: cell-based; settings: strain N247-21; agar dilution; Mueller Hinton medium; 10^6 CFU/ml
Description: as §6, §7, §8

[33] = tested on: Staphylococcus aureus FDA 209P; assay: as above; format: cell-based; settings: strain FDA 209P; agar dilution; Mueller Hinton medium; 10^6 CFU/ml
Description: as §6, §7, §8

[34] = tested on: Staphylococcus aureus N51; assay: as above; format: cell-based; settings: strain N51; agar dilution; Mueller Hinton medium; 10^6 CFU/ml
Description: as §6, §7, §8

[35] = tested on: Staphylococcus aureus TS-65; assay: as above; format: cell-based; settings: strain TS-65; agar dilution; Mueller Hinton medium; 10^6 CFU/ml
Description: as §6, §7, §8

[36] = tested on: Staphylococcus aureus N176-6; assay: as above; format: cell-based; settings: strain N176-6; agar dilution; Mueller Hinton medium; 10^6 CFU/ml
Description: as §6, §7, §8

CN1C(=O)C[C@H](CCCNC(=N)N)NC(=O)[C@H]1CNC(=N)NC(N)=O [TAN-1057C]
MIC (Bacillus cereus FDA 5): > 100 µg/mL | MIC [1]: 50 µg/mL (≈ 141 µM) | MIC [2]: 12.5 µg/mL (≈ 35.2 µM) | MIC [3]: > 100 µg/mL | MIC [4]: > 100 µg/mL | MIC (Escherichia coli LD-2): 50 µg/mL (≈ 141 µM) | MIC [5]: > 100 µg/mL | MIC [6]: > 100 µg/mL | MIC [7]: > 100 µg/mL | MIC [8]: 6.25 µg/mL (≈ 17.6 µM) | MIC [9]: > 100 µg/mL | MIC [10]: > 100 µg/mL | MIC (Aeromonas caviae NCW): 50 µg/mL (≈ 141 µM) | MIC [11]: 50 µg/mL (≈ 141 µM) | MIC [12]: > 100 µg/mL | conversion of TAN-1057C and D [13]: converted into TAN-1057B

CN1C(=O)C[C@H](CCCNC(=N)N)NC(=O)[C@@H]1CNC(=N)NC(N)=O [TAN-1057D dihydrochloride]
Acidity or basicity (Acidity or basicity): neutral | Solubility (Solubility; acetone): Sparingly soluble | Solubility (Solubility; diethyl ether): Sparingly soluble | Solubility (Solubility; dimethylsulfoxide): Soluble | Solubility (Solubility; ethyl acetate): Sparingly soluble | Solubility (Solubility; methanol): Soluble | Solubility (Solubility; water): Readily soluble

CN1C(=O)C[C@H](CCCNC(=N)N)NC(=O)[C@@H]1CNC(=N)NC(N)=O [TAN-1057D]
MIC (Bacillus cereus FDA 5): 25 µg/mL (≈ 70.3 µM) | MIC [1]: 12.5 µg/mL (≈ 35.2 µM) | MIC [2]: 3.13 µg/mL (≈ 8.81 µM) | MIC [3]: > 100 µg/mL | MIC [4]: > 100 µg/mL | MIC (Escherichia coli LD-2): 12.5 µg/mL (≈ 35.2 µM) | MIC [5]: > 100 µg/mL | MIC [6]: > 100 µg/mL | MIC [7]: > 100 µg/mL | MIC [8]: 0.78 µg/mL (≈ 2.19 µM) | MIC [9]: 12.5 µg/mL (≈ 35.2 µM) | MIC [10]: 25 µg/mL (≈ 70.3 µM) | MIC (Aeromonas caviae NCW): 6.25 µg/mL (≈ 17.6 µM) | MIC [11]: 6.25 µg/mL (≈ 17.6 µM) | MIC [12]: 12.5 µg/mL (≈ 35.2 µM) | conversion of TAN-1057C and D [13]: converted into TAN-1057B and TAN-1057A, respectively

Gentamycin [GM]
MIC (Staphylococcus aureus C7): > 100 µg/mL | MIC [14]: > 100 µg/mL | MIC [15]: 0.78 µg/mL | MIC [16]: 50 µg/mL | MIC [17]: ≤ 0.20 µg/mL | MIC [18]: > 100 µg/mL | MIC [19]: 0.39 µg/mL | MIC [20]: > 100 µg/mL | MIC [21]: > 100 µg/mL | MIC [22]: 0.39 µg/mL | MIC [23]: 100 µg/mL | MIC (Staphylococcus aureus N8): ≤ 0.20 µg/mL | MIC [24]: 50 µg/mL | MIC [25]: 50 µg/mL | MIC (Staphylococcus aureus C3): 100 µg/mL | MIC [26]: 100 µg/mL | MIC (Staphylococcus aureus C4): 50 µg/mL | MIC [27]: 3.13 µg/mL | MIC [28]: > 100 µg/mL | MIC [29]: > 100 µg/mL | MIC [30]: 0.39 µg/mL | MIC [31]: 0.39 µg/mL | MIC [32]: 50 µg/mL | MIC [33]: ≤ 0.20 µg/mL | MIC [34]: 0.39 µg/mL | MIC [35]: 100 µg/mL | MIC [36]: 0.39 µg/mL
